Source: patent US20210177814A1, “USE OF GUANABENZ OR DERIVATES THEREOF FOR THE TREATMENT OF TYPE I IFN-DEPENDENT PATHOLOGIES” (INSERM (Institut National de la Santé et de la Recherche …, priority 2018, published 2021)

Target: T1, TLR9 (Homo sapiens, UniProt Q9NR96)
T1 sequence (Q9NR96 26-1032): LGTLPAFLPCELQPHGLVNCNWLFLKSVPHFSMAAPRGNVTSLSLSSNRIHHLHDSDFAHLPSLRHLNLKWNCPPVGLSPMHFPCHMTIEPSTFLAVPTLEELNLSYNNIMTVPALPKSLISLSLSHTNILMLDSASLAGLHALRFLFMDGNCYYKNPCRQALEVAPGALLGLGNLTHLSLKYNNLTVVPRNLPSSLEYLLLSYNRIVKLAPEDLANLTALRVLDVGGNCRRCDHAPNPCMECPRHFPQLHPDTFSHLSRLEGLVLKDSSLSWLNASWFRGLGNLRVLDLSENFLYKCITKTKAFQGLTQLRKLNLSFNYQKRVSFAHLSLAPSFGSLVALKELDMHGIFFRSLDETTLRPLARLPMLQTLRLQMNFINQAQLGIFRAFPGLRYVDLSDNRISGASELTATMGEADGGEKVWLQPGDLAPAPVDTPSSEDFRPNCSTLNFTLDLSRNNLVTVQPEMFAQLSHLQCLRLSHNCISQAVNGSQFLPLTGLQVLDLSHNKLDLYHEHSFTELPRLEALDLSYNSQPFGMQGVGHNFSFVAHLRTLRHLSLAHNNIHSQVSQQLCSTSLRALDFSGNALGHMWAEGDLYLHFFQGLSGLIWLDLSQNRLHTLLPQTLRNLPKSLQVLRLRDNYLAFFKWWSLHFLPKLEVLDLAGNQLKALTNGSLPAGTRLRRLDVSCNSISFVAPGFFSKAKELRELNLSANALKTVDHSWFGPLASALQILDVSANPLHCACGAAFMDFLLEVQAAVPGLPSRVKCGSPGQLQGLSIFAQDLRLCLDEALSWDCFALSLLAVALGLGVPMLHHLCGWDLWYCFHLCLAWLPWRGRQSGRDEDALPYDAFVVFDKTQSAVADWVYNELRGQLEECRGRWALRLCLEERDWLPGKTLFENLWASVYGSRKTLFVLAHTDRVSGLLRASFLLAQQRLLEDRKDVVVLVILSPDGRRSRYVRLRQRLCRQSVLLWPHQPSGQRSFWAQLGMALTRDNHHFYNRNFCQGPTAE
Assay: Cytokine secretion by human primary blood pDCs activated with CpG ODN 2216 or lupus patient serum
Format: cell-based
Set-up: endogenous in cells; host or cells: human primary blood pDCs
Details: 3 μM CpG ODN 2216 or 2% lupus serum, GBZ 50 μM
Protocol: FIG. 1: Guanabenz inhibits TLR3 and TLR9 activation in mouse Flt3-L DCs and human blood pDCs. A) Sorted bone marrow derived Flt3L-DCs were activated for 6 h with 10 μg/mL poly I:C LMW (TLR3 in DC1) or 1 μM ODN 1585 (TLR9 in pDCs). GBZ was added at 50 μM and inhibited IFN-β and Interleukin-6 (IL-6) production in activated cells. B) hTLR4, hTLR3, hTLR9 and hTLR7 expressed in the reporter HEK-Blue™ cells are inhibited by GBZ. TLR-expressing HEK-Blue™ cells were respectively activated with 100 ng/mL LPS, 10 μg/mL poly I:C LMW, 2.5 μM ODN 2006 or 5 μg/mL imiquimod, respectively. GBZ was added at 50 μM. TLR activity was measured indirectly through SEAP activity as absorbance at 405 nm. […] Protein concentration of IFN-α and TNF-α secreted were measured at the indicated time points or at 16 h. […]
Mouse IFN-β quantification in culture supernatant was performed using the Mouse Interferon Beta ELISA kit (PBL InterferonSource); mouse IL-6, TNFα, IL-10, human TNFα and human IFNα were quantified using ELISA kit (eBioscience) respectively, according to manufacturer instructions.
Given the efficiency of GBZ on mouse TLR3 and TLR9, we turned to human TLRs, in order to extend the relevance of our observations. GBZ-mediated inhibition was first evaluated on NF-kB signaling by monitoring secreted alkaline phosphatase (SEAP) reporter levels in HEK-293 cells expressing TLR3, TLR4, TLR7, TLR9 (FIG. 1B). […]

NC(N)=N/N=C/c1c(Cl)cccc1Cl [GBZ, 2-(2,6-dichlorobenzylidene)-hydrazinecarboximidamide]
production of TNF-α: prevented | production of type-I IFN (IFN-α): prevented
